Data as given in patent US11066436B2, “5′-phosphorothiolate mRNA 5′-end (cap) analogs, mRNA comprising the same, method of obtaining and uses thereof” (Uniwersytet Warszawski, priority 2016, dated 2021).

Columns and labels:
[1] = molecular target: T1, Dcp1/2 decapping enzyme (SpDcp1/2) (Schizosaccharomyces pombe, UniProt O13828); experiment: Susceptibility of short capped RNAs to degradation with the Dcp1/2 enzyme; format: biochemical; conditions: RNA capped with the analog; 3.5 nM Dcp1/2, time point 15 min, normalized to 0′ time
T1 construct: made in house
T1 sequence (O13828 1-243 limits assumed): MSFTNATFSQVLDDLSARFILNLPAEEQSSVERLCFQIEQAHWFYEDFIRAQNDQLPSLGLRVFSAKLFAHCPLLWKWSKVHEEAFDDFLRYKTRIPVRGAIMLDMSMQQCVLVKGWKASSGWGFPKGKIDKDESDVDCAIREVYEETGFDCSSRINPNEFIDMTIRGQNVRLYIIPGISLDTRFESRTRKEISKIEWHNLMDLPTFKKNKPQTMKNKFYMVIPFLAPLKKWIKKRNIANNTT
T1 sequence (Q9P805 1-127 partner): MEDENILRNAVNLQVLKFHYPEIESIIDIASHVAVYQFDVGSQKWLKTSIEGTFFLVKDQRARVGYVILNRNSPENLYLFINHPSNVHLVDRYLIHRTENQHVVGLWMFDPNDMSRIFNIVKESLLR
Excerpt: Test 4. Susceptibility Study of Short RNA Molecules Comprising Cap Analogs at the 5′ End to Degradation with the Dcp1/2 Enzyme.
The aim of this study was to check whether incorporation of selected 5′-phosphothioate cap analogs to 5′ end of RNA could influence susceptibility of thus prepared transcripts towards Dcp1/2 decapping enzyme activity. Schizosaccharomyces pombe recombinant protein in the form of a heterodimer Dcp1/2 was obtained as described previously (Floor, Jones et al. 2010). The trancripts utilized in this assay were obtained by transcription in vitro using RNA SP6 polymerase (New England BioLabs). Annealed oligonucleotides: […] (SEQ ID NO.: 1), and […] (SEQ ID NO: 2) were used as a template in in vitro transcription, the oligonucleotides comprising the promoter sequence for SP6 polymerase (ATTTAGGTGACACTATAGA (SEQ ID NO: 3)) allow to obtain 35 nt long RNAs having a sequence of […] (SEQ ID NO: 4), however 5′ end capped RNAs are 36 nt long. Typical in vitro transcription reaction was performed in volume 20 μl and was incubated in 40° C. for 2 hours and contained the following: 1U SP6 polymerase, 1 U RiboLock RNase Inhibitor (ThermoFisher Scientific), 0.5 mM ATP/CTP/UTP, 0.125 mM GTP, 1.25 mM dinucleotide cap analog and 0.1 μM template. Following 2 hours incubation, 1U DNase I (Ambion) was added to the reaction mixture and incubation was continued for 30 min in 37° C., after that EDTA was added to 25 mM final concentration. Obtained RNAs were purified using RNA Clean & Concentrator-25 (Zymo Research). Then the quality of the synthesized RNA was determined on a denaturating 15% polyacrylamide gel. The concentration of the RNA was in turn evaluated spectrophotometrically. […] RNA having a cap at the 5′ end was 26 nt long. The reaction of cleaving the 3′ ends was as follows: 1 μM of RNA was incubated with 1 μM of DNazyme 10-23 in a mixture containing 50 mM MgCl2 and 50 mM Tris-HCl pH 8.0 for 1 hour in 37° C. (Coleman et al., 2004).
For enzymatic tests 20 ng of each RNA was used, which were incubated with 3.5 nM Dcp1/2 enzyme in buffer containing 50 mM Tris-HCl pH 8.0, 50 mM NH4Cl, 0.01% NP-40, 1 mM DTT, and 5 mM MgCl2. Reactions were performed at 37° C. in the final volume of 25 μl. The reaction was stopped after 0, 5, 15 and 30 min by adding an equal amount of a mixture of 5 M urea, 44% formamide, 20 mM EDTA, 0.03% bromophenol blue, 0.03% xylene cyanol. Reaction products were resolved on denaturing 15% polyacrylamide gels, after the electrophoretic separation was completed, the gel was stained with SYBR Gold (Invitrogen) and visualized using a Storm 860 PhosphorImager (GE Healthcare). Quantification of the obtained results was performed with ImageQuant software (Molecular Dynamics). Representative results of this assay were presented on FIG. 8, FIG. 9 and also in Table 6.

[2] = system: rabbit reticulocyte lysate; experiment: Translational efficiency of capped Renilla luciferase mRNAs in rabbit reticulocyte lysate; format: biochemical; conditions: Renilla luciferase mRNA capped with the analog; normalized to m^7GpppG-capped mRNA; biological triplicates
Experimental: Test 5. Study on the Effect of the Presence of Novel Cap Analogs on Translational Efficiency of mRNAs in Rabbit Reticulocyte Lysate.
The aim of this study was to check the effect of introducing novel cap analogs at the 5′ end of mRNAs on translation efficiency. For this purpose series of Renilla luciferase encoding mRNAs, and differing in the cap structure at the 5′ end were prepared. The transcripts used for this test were obtained by in vitro transcription reaction using SP6 RNA polymerase. As the template for the in vitro transcription a PCR product was used, prepared using primers […] (SEQ ID NO: 6) and […] (SEQ ID NO: 7) and the hRLuc-pRNA2(A)128 plasmid (Williams et al. 2010). PCR reaction thus conducted allowed to introduce promoter sequence for SP6 polymerase upstream of the sequence encoding Renilla luciferase. The transcription reaction itself was similar to the short RNA synthesis described above (Test 4). The reaction was conducted for 2 hours in 20 μl in 40° C. and contained the following: 1U SP6 polymerase, 1 U RiboLock RNase Inhibitor (ThermoFisher Scientific), 0.5 mM ATP/CTP/UTP, 0.125 mM GTP, 1.25 mM dinucleotide cap analog and […] of a template. Following 2 hours incubation, 1U DNase I (Ambion) was added and incubation was continued for 30 min in 37° C., after that EDTA was added to 25 mM final concentration. Obtained mRNAs were purified using NucleoSpin RNA Clean-up XS (Macherey-Nagel). Quality of the synthetized RNA was checked on a denaturing 15% polyacrylamide gel. The RNA concentrations were determined spectrophotometrically.
An in vitro translation reaction was performed in rabbit reticulocyte lysate (RRL, Promega) in conditions determined for cap-dependent translation (Rydzik et al., 2009). A typical reaction mixture (10 μl) contained: 40% RRL lysate, 0.01 mM mixture of amino acids (Promega), 1.2 mM MgCl2, 170 mM potassium acetate and a Renilla luciferase encoding mRNA with an appropriate cap analog at the 5′ end, the mixture being incubated in 37° C. for 1 hour. Four different concentrations of mRNAs: 0.1 ng/μl, 0.25 ng/μl, 0.5 ng/μl, 0.75 ng/μl were used in the experiment. Activity of synthesized luciferase was measured using Dual-Luciferase Reporter Assay System (Promega) in a microplate reader Synergy H1 (BioTek). Obtained results were analyzed in Origin (Gambit) software, and theoretical curve was fitted to experimental data, wherein the slope of obtained curve represents translation efficiency. Representative data were presented on FIG. 10, whereas average translation efficiency obtained for biological triplicates is presented in Table 6.

mice with SMA = conditions: reported by Van Meerbeke, Gibbs et al.; cited from earlier work
[3] = molecular target: T2, human DcpS enzyme (hDcpS) (Homo sapiens, UniProt Q96C86); experiment: Susceptibility of cap analogs to degradation by DcpS enzyme (RP-HPLC); format: biochemical; conditions: cap analog 20 μM, hDcpS 100 nM, RP-HPLC
T2 construct: made in house
T2 sequence (Q96C86 1-337): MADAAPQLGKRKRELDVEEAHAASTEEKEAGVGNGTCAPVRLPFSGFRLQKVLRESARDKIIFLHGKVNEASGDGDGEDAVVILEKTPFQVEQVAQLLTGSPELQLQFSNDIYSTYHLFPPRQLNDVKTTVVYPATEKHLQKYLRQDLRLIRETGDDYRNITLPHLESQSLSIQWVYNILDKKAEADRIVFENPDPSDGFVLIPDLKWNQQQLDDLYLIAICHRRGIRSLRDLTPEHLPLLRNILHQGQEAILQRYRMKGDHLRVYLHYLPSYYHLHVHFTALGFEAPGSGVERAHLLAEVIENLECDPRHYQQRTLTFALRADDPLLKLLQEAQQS
Experimental: Test 1. The Susceptibility Study of Analogs to Degradation by DcpS Enzyme.
The aim of the test was to check if new 5′-thiophosphate cap analogs are hydrolyzed by human DcpS enzyme (hDcpS). Recombinant human protein encoding DcpS enzyme was expressed as described previously (Kowalska, Lewdorowicz et al. 2008). The susceptibility of new analogs to hDcpS hydrolysis is tested in 50 mM Tris-HCl buffer containing 200 mM KCl and 0.5 mM EDTA. Reaction mixture includes the tested cap analog (20 μM) and hDcpS enzyme (100 nM) in 400 μl of buffer. At the appropriate intervals 100 μl sample is collected from the reaction mixture. Sample is incubated at 98° C. for 2.5 min, and then cooled to 0° C. and analyzed on RP-HPLC under conditions described in general informations. In tests also commercially available inhibitor of DcpS was tested, the compound RG3039 (no. 000) (https://www.mda.org/quest/fda-approves-phase-1-clinical-trial-rg3039-sma), GppSG (no. 19), GpppSG (no. 20), as well m^7GpppG (no. 0) and m^7Gpp (no. 00) as controls. Exemplary results obtained are shown on FIG. 5 and Table 5.

Structure (SMILES)	Dcp1/2 susceptibility [1]	relative translation efficiency [2]	motor function in mice with SMA (mice with SMA)	DcpS susceptibility [3]
Nc1nc2c(ncn2[C@@H]2O[C@H](COP(=O)(O)OP(=O)(O)OP(=O)(O)OC[C@H]3O[C@@H](n4cnc5c(=O)[nH]c(N)nc54)[C@H](O)[C@@H]3O)[C@@H](O)[C@H]2O)c(=O)[nH]1 [GpppG]	0	0.05 ± 0.01		
Nc1nc(N)c2c(OCC3CCN(Cc4c(Cl)cccc4Cl)CC3)cccc2n1 [No. 000]			improves motor function	
Cn1c[n+]([C@@H]2O[C@H](COP(=O)(O)OP(=O)([O-])OP(=O)(O)OC[C@H]3O[C@@H](n4cnc5c(=O)[nH]c(N)nc54)[C@H](O)[C@@H]3O)[C@@H](O)[C@H]2O)c2nc(N)[nH]c(=O)c21 [No. 0]	0.69	1.00		hydrolyzable
COC1C(O)[C@@H](CSP(=O)([O-])OP(=O)(O)OP(=O)(O)OC[C@H]2O[C@@H](n3cnc4c(=O)[nH]c(N)nc43)C(O)C2O)O[C@H]1n1c[n+](C)c2c(O)nc(N)nc21 (some centres unmarked) [No. 26, P1-(2′-O-methyl-7-methyl-5′-deoxy-5′-thioguanosin-5′-yl)-P3-guanosin-5′-yl triphosphate]	0.07	1.73 ± 0.24		
COC1C(O)[C@@H](COP(=O)(O)OP(=O)(O)OP(=O)([O-])SC[C@H]2O[C@@H](n3cnc4c(=O)[nH]c(N)nc43)C(O)C2O)O[C@H]1n1c[n+](C)c2c(O)nc(N)nc21 (some centres unmarked) [No. 38, P1-(2′-O-methyl-7-methyl-guanosin-5′-yl)-P3-(5′-deoxy-5′-thioguanosin-5′-yl) triphosphate]	0.52	2.23 ± 0.31		
CO[C@@H]1[C@H](O)[C@@H](COP(=O)(O)OP(=O)([O-])OP(=O)(O)OC[C@H]2O[C@@H](n3cnc4c(=O)[nH]c(N)nc43)[C@H](O)[C@@H]2O)O[C@H]1n1c[n+](C)c2c(O)nc(N)nc21 [m2^7,2′-oGpppG]	0.52	1.56 ± 0.14		
COC1C(O)C(COP(=O)(O)OP(=O)(S)OP(=O)(O)OCC2OC(n3cnc4c(=O)[nH]c(N)nc43)C(O)C2O)OC1n1c[n+](C)c2c(=O)[nH]c(N)nc21 (centres unmarked) [m2^7,2′-oGppspG D2]	0.43	3.45 ± 0.42		
